Data as given in patent US11780826B2 (Amgen Inc., priority 2017, dated 2023).

system: Bovine cardiac myofibrils; assay: In vitro model of dose-dependent myofibril ATPase modulation (AC1.4, pyruvate kinase/lactate dehydrogenase-coupled ATPase assay at pCa25); assay type: biochemical; details: concentration at which ATPase activity was 1.4-fold higher than the bottom of the dose curve, mean of a minimum of two independent tests
Procedure, shortened: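 Bovine cardiac myofibrils, detergent-treated; 0.25-1.0 mg/ml. Buffer: K-PIPES 12 mM, MgCl2 2 mM, DTT 1 mM, BSA 0.1 mg/ml, pH 6.80, 22° C; Ca2+ set by EGTA/CaCl2. ATP 1 mM, NADH/PEP-coupled, A340. 4-parameter fit; n≥2.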

Row | Structure (SMILES) | AC1.4
1 | N#CC1(F)CN(S(=O)(=O)N2CCC[C@H](C(=O)N3CCC[C@@H]3C(=O)NCc3ccc(C(F)(F)F)cc3F)C2)C1 [Example 327, 1-(((3S)-1-((3-cyano-3-fluoro-1-azetidinyl)sulfonyl)-3-piperidinyl)carbonyl)-N-(2-fluoro-4-(trifluoromethyl)benzyl)-D-prolinamide] | 0.8893 µM
2 | CS(=O)(=O)c1cccc(C(=O)N2CCOC[C@@H]2C(=O)N[C@@H](c2cc(F)c(Cl)cc2F)C2CC2)c1 [Example 328, (3R)-N-((R)-(4-chloro-2,5-difluorophenyl)(cyclopropyl)methyl)-4-(3-(methylsulfonyl)benzoyl)-3-morpholinecarboxamide] | 0.8776 µM
3 | O=C(NCc1ccc(C(F)(F)F)cc1)[C@H]1CCCN1C(=O)c1cccc(S(=O)(=O)N2CC3(COC3)C2)c1 [Example 329, 1-((3-(2-oxa-6-azaspiro[3.3]hept-6-ylsulfonyl)phenyl)carbonyl)-N-(4-(trifluoromethyl)benzyl)-D-prolinamide] | 0.8921 µM
4 | C[C@H](NC(=O)[C@H]1CCCN1C(=O)c1cccc(S(=O)(=O)N2CC(C#N)C2)c1)c1ccc(Cl)cc1 [Example 330, N-((1S)-1-(4-chlorophenyl)ethyl)-1-((3-((3-cyano-1-azetidinyl)sulfonyl)phenyl)carbonyl)-D-prolinamide] | 0.8972 µM
5 | C[C@H](NC(=O)[C@@H](C)N(C)C(=O)c1cccc(S(=O)(=O)N2CC(C#N)C2)c1)c1ccc(Cl)cc1 [Example 331, N-((1R)-2-(((1S)-1-(4-chlorophenyl)ethyl)amino)-1-methyl-2-oxoethyl)-3-((3-cyano-1-azetidinyl)sulfonyl)-N-methylbenzamide] | 0.8976 µM
6 | CC(C)C1(O)CN(S(=O)(=O)N2CCC[C@H](C(=O)N3CCC[C@@H]3C(=O)NCc3ccc(C(F)(F)F)cc3F)C2)C1 [Example 332, N-(2-fluoro-4-(trifluoromethyl)benzyl)-1-(((3S)-1-((3-hydroxy-3-(2-propanyl)-1-azetidinyl)sulfonyl)-3-piperidinyl)carbonyl)-D-prolinamide] | 0.9097 µM
7 | N#CC1CN(S(=O)(=O)N2CCC[C@H](C(=O)N3CCC[C@@H]3C(=O)NCc3ccc(Cl)c(C(F)(F)F)c3)C2)C1 [Example 333, N-(4-chloro-3-(trifluoromethyl)benzyl)-1-(((3S)-1-((3-cyano-1-azetidinyl)sulfonyl)-3-piperidinyl)carbonyl)-D-prolinamide] | 0.921 µM
8 | Cc1ccc(CNC(=O)[C@H]2CCCN2C(=O)[C@@H]2CN(S(=O)(=O)N3CC(C#N)C3)CCN2)cc1F [Example 334, 1-(((2S)-4-((3-cyano-1-azetidinyl)sulfonyl)-2-piperazinyl)carbonyl)-N-(3-fluoro-4-methylbenzyl)-D-prolinamide] | 0.9294 µM
9 | N#CC1CN(S(=O)(=O)N2CCC[C@H](C(=O)N3CCC[C@@H]3C(=O)NCc3cccc(C(F)(F)F)c3F)C2)C1 [Example 335, 1-(((3S)-1-((3-cyano-1-azetidinyl)sulfonyl)-3-piperidinyl)carbonyl)-N-(2-fluoro-3-(trifluoromethyl)benzyl)-D-prolinamide] | 0.9362 µM
10 | Cc1ccc(CNC(=O)[C@H]2CCCN2C(=O)[C@H]2CCCN(S(=O)(=O)N3CC(C#N)C3)C2)cc1C [Example 336, 1-(((3S)-1-((3-cyano-1-azetidinyl)sulfonyl)-3-piperidinyl)carbonyl)-N-(3,4-dimethylbenzyl)-D-prolinamide] | 0.9372 µM
11 | C[C@H](C(=O)NCc1ccc(Cl)cc1)N(C)C(=O)c1cccc(S(=O)(=O)N2CC(C#N)C2)c1 [Example 337, N-((1R)-2-((4-chlorobenzyl)amino)-1-methyl-2-oxoethyl)-3-((3-cyano-1-azetidinyl)sulfonyl)-N-methylbenzamide] | 0.9477 µM
12 | N#CC1CN(S(=O)(=O)N2CCC[C@H](C(=O)N3CCC[C@@H]3C(=O)NCc3c(F)c(F)c(F)c(F)c3F)C2)C1 [Example 338, 1-(((3S)-1-((3-cyano-1-azetidinyl)sulfonyl)-3-piperidinyl)carbonyl)-N-(pentafluorobenzyl)-D-prolinamide] | 0.948 µM
